Where “and” joins values, the source holds several entries; their conditions need not be identical. Equal values may be shown once.
How the values were obtained:
Format in all cases: in vivo, human
[1] = BLOOM-DM (APD356-010) Phase 3 study: Week 52 outcomes by Week 12/Week 24 responder status, patients with type 2 diabetes mellitus; conditions: for Diastolic BP, Week 52 Change from Baseline Mean (SE) / HbA1c, Week 52 Change from Baseline Mean (SE) / Heart Rate, Week 52 Change from Baseline Mean (SE) / Systolic BP, Week 52 Change from Baseline Mean (SE): With T2DM
Protocol: APD356-010 (BLOOM-DM) was a 52-week, placebo controlled study that evaluated the effect of two lorcaserin doses (10 mg BID and 10 mg QD) on categorical and total weight loss with concurrent behavior modification in 604 patients with type 2 diabetes mellitus managed with oral hypoglycemic agents. Randomization to the 10 mg once daily group was halted by protocol amendment in order to accelerate enrollment, resulting in final group sizes of 253 (placebo), 95 (lorcaserin QD) and 256 (lorcaserin BID).
(§1) An analysis of early weight loss was performed, at each visit after baseline through Week 24, as a predictor of ultimate weight loss success, as defined by achieving at least about 5% weight loss at 52 weeks, or at least about 10% weight loss at 52 weeks.
Table 3 and Table 4 provide the sensitivity, specificity, positive predicted value (PPV) and negative predictive value (NPV) at Weeks 12 and 24 for at least about 5% and at least about 10% weight loss at Week 52 in different studies. The rounded percent weight loss at Week 12 for at least 5% and at least about 10% weight loss at Week 52 are about 5% and about 6%, respectively. Using the about 6% weight loss at Week 12 as a criterion enhances the PPV for both about 5% and about 10% categorical weight loss at Week 52, but at the expense of excluding about 10% and about 4% more of the about 5% categorical responders at Week 52 in patients without and with diabetes, respectively, based upon NPV. The rounded optimal thresholds at Week 24 for at least about 5% and at least about 10% weight loss at Week 52 are about 6% and about 9%, respectively. Using the 9% weight loss criterion at Week 24 enhances the PPV for both about 5% and about 10% categorical weight loss at Week 52, but at the expense of excluding about 19% and about 9% more of the about 5% categorical responders at Week 52 in patients without and with diabetes, respectively, based upon NPV. As described below, if at least about a 5% weight loss criterion is applied, patients achieving this milestone will achieve an average of about 10.8% weight loss in patients without diabetes and about 9.1% weight loss in patients with diabetes at Week 52.
Tables 6 and 7, below, present weight loss, vital sign, and glycemic changes at Week 52 in pooled patients without diabetes, patients with T2DM, and pooled patients with impaired fasting glucose (IFG; ≧100 mg/dL) who were Week 12 responders.

[2] = Lorcaserin pivotal phase 3 clinical trial program (NDA summary)
Source text: The NDA submission is based on an extensive data package from lorcaserin's clinical development program that includes 18 clinical trials totaling 8,576 patients. […] About two-thirds of patients achieved at least 5% weight loss and over one-third achieved at least 10% weight loss. On average, patients lost 17 to 18 pounds or about 8% of their weight. Secondary endpoints, including body composition, lipids, cardiovascular risk factors and glycemic parameters improved compared to placebo. In addition, heart rate and blood pressure went down. […] Lorcaserin improved quality of life, and there was no signal for depression or suicidal ideation. The only adverse event that exceeded the placebo rate by 5% was generally mild or moderate, transient headache. Based on a normal BMI of 25, patients in the first phase 3 trial lost about one-third of their excess body weight. The average weight loss was 35 pounds or 16% of body weight for the top quartile of patients in the second phase 3 trial.

[3] = Pooled BLOOM and BLOSSOM Phase 3 studies: Week 52 outcomes by Week 12/Week 24 responder status, patients without T2DM; conditions: for Diastolic BP, Week 52 Change from Baseline Mean (SE) / HbA1c, Week 52 Change from Baseline Mean (SE) / Heart Rate, Week 52 Change from Baseline Mean (SE) / Systolic BP, Week 52 Change from Baseline Mean (SE): Without T2DM
Protocol: APD356-009 (“BLOOM”) was a 104-week, placebo controlled study that assessed the safety and efficacy of lorcaserin 10 mg BID in overweight and obese patients, with concurrent behavior modification. The primary efficacy objective during Year 1 was to evaluate weight loss; the primary objective during Year 2 was to assess the ability of lorcaserin to maintain body weight loss that was achieved during Year 1. At study start, each patient received randomized, double blind treatment assignments for Year 1 and for Year 2 (all patients were given a new randomization number for Year 2 to assure that patients and study personnel remained blinded to treatment assignments). All patients assigned to placebo during Year 1 (50% of randomized population) remained on placebo in Year 2. Patients assigned to lorcaserin during Year 1 were randomly assigned to stay on lorcaserin during Year 2 (⅔ of Year 1 lorcaserin patients) or to switch to placebo (⅓ of Year 1 lorcaserin patients).
APD356-011 (“BLOSSOM”) was a 52-week, placebo controlled study that evaluated the effect of two lorcaserin doses (10 mg BID and 10 mg QD) on categorical and total weight loss with concurrent behavior modification. Patients were randomized in a ratio of 2:1:2 to lorcaserin 10 mg BID, 10 mg QD, or placebo.
as §1

[4] = Week 12 Non-responder (<5%), Completers Population, 10 mg BID
[5] = Week 12 Non-responder (<5%), MITT with LOCF, 10 mg BID
[6] = Week 12 Responder (≧5% weight loss), MITT with LOCF, 10 mg BID
[7] = Week 12 Responder (≧5%), Completers Population, 10 mg BID
[8] = Week 12 Nonresponder (5%), 10 mg BID
[9] = Week 12 Responder (5%), 10 mg BID
[10] = of patients with observed Week 12 data, type 2 diabetes, 10 mg BID
[11] = Week 12 Responder (≧5% weight loss), Completers Population, 10 mg BID
[12] = Week 12 responders without diabetes
[13] = of patients with observed Week 12 data, without diabetes, 10 mg BID, listed as Lorcaserin

C[C@H]1CNCCc2ccc(Cl)cc21 [lorcaserin, (R)-8-chloro-1-methyl-2,3,4,5-tetrahydro-1H-3-benzazepine]
Week 52 Weight 5% Responder [1, 4]: 29.0% | Week 52 Weight 10% Responder [1, 4]: 10.0% | Week 52 Weight Mean (SE) Change from Baseline, kg [1, 4]: −3.45 (0.44) kg | Week 52 Weight Mean (SE) Percent Change from Baseline, % [1, 4]: −3.36 (0.42) % | Week 52 Weight 5% Responder [1, 5]: 25.2% | Week 52 Weight 10% Responder [1, 5]: 8.6% | Week 52 Weight Mean (SE) Change from Baseline, kg [1, 5]: −3.20 (0.36) kg | Week 52 Weight Mean (SE) Percent Change from Baseline, % [1, 5]: −3.13 (0.35) % | Week 52 Weight 5% Responder [1, 6]: 71% and 70.5% | Week 52 Weight 10% Responder [1, 6]: 36% and 35.9% | Week 52 Weight Mean (SE) Change from Baseline, kg [1, 6]: −9.26 (0.77) kg | Week 52 Weight Mean (SE) Percent Change from Baseline, % [1, 6]: −9.07 (0.70) % | Week 52 Weight 5% Responder [1, 7]: 70.8% | Week 52 Weight 10% Responder [1, 7]: 40.0% | Week 52 Weight Mean (SE) Change from Baseline, kg [1, 7]: −9.77 (0.89) kg | Week 52 Weight Mean (SE) Percent Change from Baseline, % [1, 7]: −9.49 (0.80) % | change in HbA1c at Week 52 ([1]; Week 12 non-responders with type 2 diabetes): −0.84% | Week 52 reduction in diastolic blood pressure ([1]; Week 12 responders with T2DM): 1.9 mmHg | Week 52 reduction in heart rate ([1]; Week 12 responders with T2DM): 3.2 BPM | Week 52 reduction in systolic blood pressure ([1]; Week 12 responders with T2DM): 2.6 mmHg | A1C W52 Change ([1]; Week 12 responders, patients with T2DM, 10 mg BID): −1.2% | Diastolic BP, Week 52 Change from Baseline Mean (SE) [1, 8]: −1.07 (0.86) | HbA1c, Week 52 Change from Baseline Mean (SE) [1, 8]: −0.84 (0.09) | Heart Rate, Week 52 Change from Baseline Mean (SE) [1, 8]: −0.87 (0.73) | Systolic BP, Week 52 Change from Baseline Mean (SE) [1, 8]: −0.55 (1.11) | Diastolic BP, Week 52 Change from Baseline Mean (SE) [1, 9]: −1.91 (1.01) | HbA1c, Week 52 Change from Baseline Mean (SE) [1, 9]: −1.20 (0.11) | Heart Rate, Week 52 Change from Baseline Mean (SE) [1, 9]: −3.24 (1.21) | Systolic BP, Week 52 Change from Baseline Mean (SE) [1, 9]: −2.59 (1.73) | Week 12 Non-Responder, percentage of patients [1, 10]: 139 (64.1%) | Week 12 Responder (at least 5% weight loss at Week 12), percentage of patients [1, 10]: 35.9% | Week 12 Responder (at least 5% weight loss at Week 12), percentage of patients ([1]; of patients with observed Week 12 data, type 2 diabetes, 10 mg BID, listed as Lorcaserin): 78 (35.9%) | average weight loss at Week 52 ([1]; patients with diabetes achieving at least about 5% weight loss at Week 12): about 9.1% | risk of cardiac valvulopathy ([2]; phase 3 program): did not increase | average weight lost, of their weight ([2]; pivotal phase 3 program): about 8% | average weight loss of body weight, top quartile of patients ([2]; second phase 3 trial): 16% | average weight loss, top quartile of patients ([2]; second phase 3 trial): 35 pounds | Week 52 Weight 5% Responder [3, 4]: 35.9% | Week 52 Weight 10% Responder [3, 4]: 7.4% | Week 52 Weight Mean (SE) Change from Baseline, kg [3, 4]: −3.50 (0.18) kg | Week 52 Weight Mean (SE) Percent Change from Baseline, % [3, 4]: −3.44 (0.18) % | Week 52 Weight 10% Responder [3, 5]: 4.7% | Week 52 Weight Mean (SE) Change from Baseline, kg [3, 5]: −2.76 (0.12) kg | Week 52 Weight Mean (SE) Percent Change from Baseline, % [3, 5]: −2.73 (0.12) % | Week 52 Weight 5% Responder [3, 11]: 85.8% | Week 52 Weight 10% Responder [3, 11]: 55.9% | Week 52 Weight Mean (SE) Change from Baseline, kg [3, 11]: −11.31 (0.21) kg | Week 52 Weight Mean (SE) Percent Change from Baseline, % [3, 11]: −11.52 (0.21) % | Week 52 Weight 10% Responder [3, 6]: 49.8% | Week 52 Weight Mean (SE) Change from Baseline, kg [3, 6]: −10.63 (0.18) kg | Week 52 Weight Mean (SE) Percent Change from Baseline, % [3, 6]: −10.84 (0.18) % | Week 52 reduction in diastolic blood pressure [3, 12]: 2.5 mmHg | Week 52 reduction in heart rate [3, 12]: 2.5 BPM | Week 52 reduction in systolic blood pressure [3, 12]: 3.4 mmHg | Diastolic BP, Week 52 Change from Baseline Mean (SE) [3, 8]: −1.02 (0.25) | HbA1c, Week 52 Change from Baseline Mean (SE) [3, 8]: −0.05 (0.01) | Heart Rate, Week 52 Change from Baseline Mean (SE) [3, 8]: −0.29 (0.26) | Systolic BP, Week 52 Change from Baseline Mean (SE) [3, 8]: −0.82 (0.34) | Diastolic BP, Week 52 Change from Baseline Mean (SE) [3, 9]: −2.52 (0.25) | HbA1c, Week 52 Change from Baseline Mean (SE) [3, 9]: −0.18 (0.01) | Heart Rate, Week 52 Change from Baseline Mean (SE) [3, 9]: −2.45 (0.26) | Systolic BP, Week 52 Change from Baseline Mean (SE) [3, 9]: −3.39 (0.34) | Week 12 Non-Responder (<5% wt loss), percentage of patients ([3]; of patients with observed Week 12 data, without diabetes, 10 mg BID): 1,286/2,537(50.7%) | Week 12 Non-Responder (<5% wt loss), percentage of patients [3, 13]: 1286 (50.7%) | Week 12 Responder (at least 5% weight loss at Week 12), percentage of patients [3, 13]: 1251 (49.3%) | average weight loss at Week 52 ([3]; patients without diabetes achieving at least about 5% weight loss at Week 12): about 10.8%

Reference: US9169213B2, “Method of weight management” (Arena Pharmaceuticals, Inc., priority 2012, dated 2015)
